Measured values taken from patent US20230123497A1, “NOVEL ANTIBACTERIAL HYDROGELS” (NewSouth Innovations Pty Limited, priority 2020, published 2023).
Where “and” joins values, the source holds several entries; their conditions need not be identical. Identical values can stand only once.

What was measured:
Type in all cases: physicochemical
[1] = Hydrogel formation, vial inversion test (critical gel concentration)
From the text: (§1) The simplest method to determine whether a suitable hydrogel has formed is to use the vial inversion test. Through visual inspection, a material can be categorised as a solution, viscous solution, partial gel, or solid-like gel. A stable hydrogel needs to be able to hold its weight and/or maintain its shape during this assessment.
(§2) The critical gel concentration (CGC) is defined as the minimum mass of a short peptide required to provide a self-supporting hydrogel per unit volume in the vial inversion test (measured as % w/v).
(§3) Pre-weighed samples of short peptide 4 were prepared in aluminium-covered glass vials and Milli-Q water and 2 equivalents of NaOH (1.0 M) were added to make up concentrations of 1% w/v. The resulting suspensions were vortexed for 5 minutes to provide clear yellow solutions with pH 11.
(§4) To create a high ionic strength environment, 1 equivalent of NaCl was added and the vial was left to stand without disturbance for 3 hours at room temperature. Meanwhile, as an attempt to form a hydrogel by lowering the pH, 2 equivalents of GdL were added to a high pH solution of 4 followed by gentle mixing. These vials were inverted and allowed to stand overnight to confirm the hydrogel formation.
(§5) The formation of hydrogel 4 via the solvent switch method was conducted by dissolving short peptide 4, in an aluminium covered glass vial, with either 50% methanol, ethanol, or dimethyl sulfoxide (DMSO). Respective amounts of Mili-Q water were added to make up concentrations of 1% w/v.
(§6) In addition, gelation time was defined as the time (hours) required for 1% w/v of short peptide 4 to form a hydrogel which can be turned upside down without collapsing.
(§7) Pre-weighed samples of short peptides 10a-17a, 18, and 19 were prepared in glass vials with 10 mm internal diameter, and Milli-Q water was added to make up concentrations of 1% w/v. The resulting suspensions of short peptides 13, 18, and 19 (as ammonium or guanidinium salts) were slowly warmed until all solid had completely dissolved. GdL (1.5 to 2.0 equivalents) was added to the suspension of short peptides 10a-17a, before heat was applied. To create a high ionic strength environment, 1-5 equivalents of NaCl was added to the viscous solution of 10a-17a to make the total volume up to 1 mL, followed by gentle mixing, and the vial was left to stand without disturbance for 3 hours at room temperature. Subsequently, these vials were inverted and allowed to stand overnight to confirm hydrogel formation.

[2] = Strain sweep test (SST), linear viscoelastic region
Description: (§8) Initially, 1 mL of hydrogels were prepared from short peptides 11-13 and 15-19 in glass vials at concentration of 1% w/v. These vials were warmed using a heat gun to transform the hydrogel to the solution phase. Subsequently, 560 μL of the resulting solutions were cast onto the rheometer plate. The other plate was lowered to the measuring position ([…]) and the hydrogel was allowed to stand for 3 hours for the gel to form. The FST was conducted at fixed strain of 0.1% and frequency ranging from 10 Hz to 0.01 Hz. Meanwhile, the strain sweep test (SST) was performed at a frequency of 1 Hz using 0.1% strain to 100% strain. The rheology data were shown as the average of three repeats for each data point.
(§9) The mechanical properties of hydrogels 4 (formed via addition of NaCl or GdL) before and after blue light irradiation were also assessed using an Anton Paar MCR 302 rheometer with a 25 mm stainless parallel plate configuration. Prior to the hydrogel formation, 560 μL of solution phase of short peptide 4 at 1% w/v were transferred onto a rheometer plate. Meanwhile, hydrogel 4, which had been exposed to blue light, was warmed using a heat gun, to provide its solution phase. Subsequently, 560 μL of this solution phase was cast onto the rheometer plate. The other plate was lowered to the measuring position ([…]) and the hydrogel was allowed to stand for 3 hours for the gel to form. The frequency sweep test (FST) was conducted at fixed strain of 0.1% and frequency ranging from 10 Hz to 0.01 Hz. Meanwhile, the SST was performed at a frequency of 1 Hz using 0.1% strain to 100% strain. In addition, the temperature sweep test was conducted to obtain transition glass (Tg) using fixed frequency of 1 Hz and fixed strain of 0.1% with temperature ramping from 25° C. to 90° C. The rheology data were shown as the average of three repeats for each data point.
To observe the structural decay in anthranilamide-based cationic hydrogels, the SST was performed by imposing a non-linear strain. SST provides information about the viscoelastic properties of a hydrogel through determination of its linear viscoelastic region (LVER). […] Here, the LVER reported for each hydrogel represents the deviation of storage modulus (G′) from linearity, known as yield point (γy). Yield points have been reported to reflect a point where the rigidity of a hydrogel starts to weaken.

[3] = Frequency sweep test (FST), rheometer; settings: for G′: 1% w/v
Description: The mechanical properties of anthranilamide-based cationic hydrogels were assessed using an Anton Paar MCR 302 rheometer with a 25 mm stainless parallel plate configuration.
as §8, §9
In the FST, samples were measured over a range of oscillation frequencies (0.1-10 rad/s) at fixed strain, temperature, and oscillation amplitude. Higher frequencies simulate fast motion on a short time-scale, while low frequencies simulate slow motion on a long time-scale, or rest. All of the hydrogels made from the anthranilamide-based short cationic peptides, which passed the vial inversion test, were subjected to the FST using a rheometer to precisely assess their mechanical properties.

[4] = Atomic force microscopy (AFM) of fibers
Description: Hydrogels of NO-releasing short peptide 4 (1 drop), at high pH, low pH, and after irradiation, were cast onto a mica substrate. Hydrogels of cationic short peptides 11-13 and 15-19 were prepared at their CGC, 2× below, and 4× below CGC in glass vials. Prior to gelation, one drop of the cationic short peptide solutions was cast onto a mica substrate. Using a glass slide, each droplet was carefully spread and was left to dry overnight before imaging. Imaging was performed using a Bruker Multimode 8 Atomic Force Microscope in Scanasyst Air (PeakForce Tappings) mode, which is based on tapping mode AFM. To prevent damage of soft samples, the imaging parameters were constantly optimized through the force curves that were collected. Bruker Scanasyst-Air probes were used, with a spring constant of 0.4-0.8 N·m^−1 and a tip radius of 2 nm.
To gain some insight on the mechanism of antibacterial action, the released solutions from hydrogel made of primary ammonium 11 were directly cast onto a mica substrate. […] After gently spreading using a glass slide and left to dry overnight, these samples were imaged using a similar manner as describe above.

[5] = Hydrogel formation, vial inversion test (critical gel concentration); parameters: key: VS: viscous solution; CG: clear gel
From the text: as §1, §2, §3, §4, §5, §6, §7

[6] = hydrogels 11-13 at 1% w/v, FST fixed strain 0.1%

## O=C(Nc1ccccc1C(=O)N[C@@H](Cc1ccccc1)C(=O)N[C@@H](Cc1ccccc1)C(=O)O)c1ccc([N+](=O)[O-])c(C(F)(F)F)c1 [Compound 4, (2-(4-Nitro-3-(trifluoromethyl)benzamido)benzoyl)-L-phenylalanyl-L-phenylalanine]
[1]; solvent switch, DMSO 50 % v/v, 1% w/v
  Time (gelation time): Immed.
[1]; solvent switch, EtOH 5 % v/v
  Time (gelation time): Immed.
[1]; solvent switch, EtOH 50 % v/v, 1% w/v
  Time (gelation time): Immed.
[1]; solvent switch, MeOH 50 % v/v, 1% w/v
  Time (gelation time): Immed.
[1]; solvent switch, co-solvent DMSO 50 % v/v
  CGC (critical gel concentration): 0.4 % w/v
[1]; solvent switch, co-solvent EtOH 50 % v/v
  CGC (critical gel concentration): 0.4 % w/v
[1]; solvent switch, co-solvent MeOH 50 % v/v
  CGC (critical gel concentration): 0.4 % w/v
[1]; trigger NaOH
  Time (self-assembly/gelation): 48 h
  pH: 11
[1]; trigger NaOH + GdL
  Time (self-assembly/gelation): 1 h
  pH: 5.5 and 5.2
[1]; trigger NaOH + GdL (pH switch)
  CGC (critical gel concentration): 0.2 % w/v
[1]; trigger NaOH + NaCl
  CGC (critical gel concentration): 0.2 % w/v
  Time (self-assembly/gelation): 3 h
  pH: 11
[2]; hydrogel 4 at pH 5.5-6
  % strain (LVER): 1.4%
[2]; hydrogel 4 at pH 11
  % strain (LVER): 1.2%
[3]; hydrogel 4 at pH 5.5-6
  G′/G″: 17
  G″: 0.6 kPa
[3]; hydrogel 4 at pH 5.5-6 (low pH, GdL), before irradiation
  G′: 10.2 kPa
[3]; hydrogel 4 at pH 11
  G′/G″: 12
  G″: 1.1 kPa
[3]; hydrogel 4 at pH 11 (high pH, NaCl)
  G′: 13.2 kPa
[3]; hydrogel 4 irradiated (λ=440-450 nm) for 2 hours, after NO release
  G′ after irradiation: 4.9 kPa
[4]; hydrogel 4, before irradiation
  diameter of larger (bundled) fibers: 104±4 nm
[4]; hydrogel 4 formed at high pH
  fiber diameter: 40±3 nm
[4]; hydrogel 4 formed at low pH
  fiber diameter: 43±5 nm
[4]; hydrogel 4 irradiated for 2 hours (blue light)
  fiber bundle diameter after irradiation: 68±6 nm
[5]; trigger NaOH
  Remarks (gel state): VS
[5]; trigger NaOH + GdL
  Remarks (gel state): CG
[5]; trigger NaOH + NaCl
  Remarks (gel state): CG

## NCCCNC(=O)[C@H](Cc1ccccc1)NC(=O)c1ccccc1NC(=O)c1ccc2ccccc2c1 [Compound 11]
[1]; cationic peptides 10-14, triggers GdL, heat and NaCl (13: heat and NaCl)
  CGC: 0.1 % w/v
[1]; hydrogels of cationic peptides 10-14
  pH: 5.5
[2]; hydrogels at 1% w/v, SST at 1 Hz, 0.1% to 100% strain
  LVER (linear viscoelastic region): 0.98 ± 0.05%
[3]; hydrogels 11-13 at 1% w/v
  G′/G″ ratio: 11.9
[3]; [6]
  G′ (modulus storage): 0.83 kPa
  G″ (modulus loss): 0.07 kPa
[4]; hydrogel after addition of salt, 4× below CGC
  fiber bundle diameter: 115±5 nm
[4]; solution released from hydrogel 11, below CGC
  diameter of fibers in the released solution: 47±4.9 nm
[4]; viscous solution without salt, 0.05% w/v
  fiber diameter: 74±6 nm
[5]; cationic peptides 10-14, vial inversion test
  Remarks (gel state): CG
